Results on twelve molecules are retold here after patent publication US20260256925A1, “INDAZOLE DERIVATIVES AS ESTROGEN RECEPTOR DEGRADERS” (REGENTS OF THE UNIVERSITY OF MICHIGAN, priority 2022, published 2026).

Where only a bound is given, the exact number is not on record here.

A short description of assay [1]: Cell growth assay, WST-8 (compounds B1-B126). Conditions: 96 h; T47D cell line, WST-8, 4 days; read-out: Cell growth inhibition in T47D cell line IC50. It is filed as cell-based. Put shortly: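 Cells seeded at 1500/well overnight, treated one day later with compound doses for 4 days, then 10% WST-8 added for 2.5 h at 37° C in CO2. Absorbance at 450 nm, expressed relative to vehicle control over three independent repeats.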
A general note: Tetrazolium dyes change colour on reduction, which living cells bring about.

A further assay deals with T1, ER (Homo sapiens, UniProt P03372).
T1 construct: endogenous in cells; probably T47D or MCF-7
T1 sequence (P03372 1-595): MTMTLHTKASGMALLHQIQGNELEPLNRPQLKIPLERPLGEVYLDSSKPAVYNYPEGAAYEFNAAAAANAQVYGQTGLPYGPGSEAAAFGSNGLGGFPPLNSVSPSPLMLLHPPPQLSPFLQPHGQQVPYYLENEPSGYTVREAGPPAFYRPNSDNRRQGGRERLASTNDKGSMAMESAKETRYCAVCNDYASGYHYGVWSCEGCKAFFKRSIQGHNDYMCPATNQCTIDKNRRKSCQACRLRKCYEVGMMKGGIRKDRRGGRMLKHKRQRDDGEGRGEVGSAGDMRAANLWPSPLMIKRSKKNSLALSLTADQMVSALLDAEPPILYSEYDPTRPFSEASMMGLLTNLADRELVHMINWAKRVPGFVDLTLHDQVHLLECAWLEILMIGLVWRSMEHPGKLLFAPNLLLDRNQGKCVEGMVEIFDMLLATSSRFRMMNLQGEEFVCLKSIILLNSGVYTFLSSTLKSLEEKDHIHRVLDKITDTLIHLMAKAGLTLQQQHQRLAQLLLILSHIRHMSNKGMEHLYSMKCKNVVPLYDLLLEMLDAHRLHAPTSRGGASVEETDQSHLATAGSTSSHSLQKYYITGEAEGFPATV
Nature of the assay: In-cell western blot analysis, relative ER percentage (compounds B1-B126). It is filed as cell-based. The following applies: ER degradation, 16 hours, read-out: ICW DC50. Put shortly:
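Cells seeded at 40,000 or 10,000 per well overnight were treated with compound (final 0.5% DMSO) for 16 hours, then fixed with formaldehyde. ER was detected with primary antibodies and anti-rabbit-680/anti-mouse-800 secondaries on a CLX reader. Signal is expressed relative to untreated and DMSO wells set as 100%.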

As usually defined, the IC50 is the concentration needed to halve the response being measured. In general, DC50 refers to the concentration giving 50% degradation.

Consider `C[C@@H]1Cc2c(ccc3[nH]ncc23)[C@@H](c2ccc(N3CCC4(CC3)CC(CN3CCN5c6ccc7c(c6OC[C@@H]5C3)CN(C3CCC(=O)NC3=O)C7=O)C4)cn2)N1CC(F)(F)F` (stereo partly drawn) [Compound B107, 3-((S)-7-((7-(6-((6S,8R)-8-methyl-7-(2,2,2-trifluoroethyl)-6,7,8,9-tetrahydro-3H-pyrazolo[4,3-f]isoquinolin-6-yl)pyridin-3-yl)-7-azaspiro[3.5]nonan-2-yl)methyl)-1-oxo-1,3,5,5a,6,7,8,9-octahydro-2H-pyrazino[1′,2′:4,5][1,4]oxazino[2,3-e]isoindol-2-yl)piperidine-2,6-dione], for which the IC50 in assay [1] is less than 1 nM. In addition, the DC50 at ER was 10 to 100 nM.
For `C[C@@H]1Cc2c(ccc3[nH]ncc23)[C@@H](c2ccc(N3CC4(CCC(CN5CCN6c7ccc8c(c7OC[C@H]6C5)CN(C5CCC(=O)NC5=O)C8=O)CC4)C3)cn2)N1CC(F)(F)F` (stereo partly drawn) [Compound B108, 3-((R)-7-((2-(6-((6S,8R)-8-methyl-7-(2,2,2-trifluoroethyl)-6,7,8,9-tetrahydro-3H-pyrazolo[4,3-f]isoquinolin-6-yl)pyridin-3-yl)-2-azaspiro[3.5]nonan-7-yl)methyl)-1-oxo-1,3,5,5a,6,7,8,9-octahydro-2H-pyrazino[1′,2′:4,5][1,4]oxazino[2,3-e]isoindol-2-yl)piperidine-2,6-dione] the same measures were less than 1 nM and less than 10 nM.
For `C[C@@H]1Cc2c(ccc3[nH]ncc23)[C@@H](c2ccc(N3CCC4(CC3)CC(CN3CCN5c6c(ccc7c6CN(C6CCC(=O)NC6=O)C7=O)OC[C@@H]5C3)C4)cn2)N1CC(F)(F)F` (stereo partly drawn) [Compound B109, 3-((S)-9-((7-(6-((6S,8R)-8-methyl-7-(2,2,2-trifluoroethyl)-6,7,8,9-tetrahydro-3H-pyrazolo[4,3-f]isoquinolin-6-yl)pyridin-3-yl)-7-azaspiro[3.5]nonan-2-yl)mcthyl)-3-oxo-1,3,7,7a,8,9,10,11-octahydro-2H-pyrazino[1′,2′:4,5][1,4]oxazino[3,2-e]isoindol-2-yl)piperidine-2,6-dione] the same measures were 1 to 10 nM and greater than 100 nM.
In the case of `C[C@@H]1Cc2c(ccc3[nH]ncc23)[C@@H](c2ccc(N3CC4(CCC(CN5CCN6c7c(ccc8c7CN(C7CCC(=O)NC7=O)C8=O)OC[C@@H]6C5)CC4)C3)cn2)N1CC(F)(F)F` (stereo partly drawn) [Compound B110, 3-((S)-9-((2-(6-((6S,8R)-8-methyl-7-(2,2,2-trifluoroethyl)-6,7,8,9-tetrahydro-3H-pyrazolo[4,3-f]isoquinolin-6-yl)pyridin-3-yl)-2-azaspiro[3.5]nonan-7-yl)methyl)-3-oxo-1,3,7,7a,8,9,10,11-octahydro-2H-pyrazino[1′,2′:4,5][1,4]oxazino[3,2-e]isoindol-2-yl)piperidine-2,6-dione], in assay [1], the IC50 lay within 1 to 10 nM. The 50% degradation concentration (DC50) on ER is greater than 100 nM.
In the same order, the values of `C[C@@H]1Cc2c(ccc3[nH]ncc23)[C@@H](c2cnc(N3CCC4(CC3)CC(CN3CCN5c6ccc7c(c6OC[C@H]5C3)CN(C3CCC(=O)NC3=O)C7=O)C4)nc2)N1CC(F)(F)F` (stereo partly drawn) [Compound B112, 3-((R)-7-((7-(5-((6S,8R)-8-methyl-7-(2,2,2-trifluoroethyl)-6,7,8,9-tetrahydro-3H-pyrazolo[4,3-f]isoquinolin-6-yl)pyrimidin-2-yl)-7-azaspiro[3.5]nonan-2-yl)methyl)-1-oxo-1,3,5,5a,6,7,8,9-octahydro-2H-pyrazino[1′,2′:4,5][1,4]oxazino[2,3-e]isoindol-2-yl)piperidine-2,6-dione] are less than 1 nM and less than 10 nM.
In the case of `C[C@@H]1Cc2c(ccc3[nH]ncc23)[C@@H](c2c(F)cc(N3CCC(CN4CCC5(CC4)COc4c5ccc5c4CN(C4CCC(=O)NC4=O)C5=O)CC3)cc2F)N1CC(F)F` (stereo partly drawn) [Compound B114, 3-(1′-((1-(4-((6S,8R)-7-(2,2-difluoroethyl)-8-methyl-6,7,8,9-tetrahydro-3H-pyrazolo[4,3-f]isoquinolin-6-yl)-3,5-difluorophenyl)piperidin-4-yl)methyl)-6-oxo-6,8-dihydro-2H,7H-spiro[furo[2,3-e]isoindole-3,4′-piperidin]-7-yl)piperidine-2,6-dione], in assay [1], the IC50 is less than 1 nM. For the same molecule, the DC50 at ER was greater than 100 nM.
As to `COc1cc(N2CCC3(CC2)OCC(CN2CCN4c5cc6c(cc5OC[C@H]4C2)C(=O)N(C2CCC(=O)NC2=O)C6)CO3)ccc1[C@@H]1c2ccc3[nH]ncc3c2C[C@@H](C)N1CC(F)F` (stereo partly drawn) [Compound B115, 3-((R)-3-((9-(4-((6S,8R)-7-(2,2-difluoroethyl)-8-methyl-6,7,8,9-tetrahydro-3H-pyrazolo[4,3-f]isoquinolin-6-yl)-3-mcthoxyphenyl)-1,5-dioxa-9-azaspiro[5.5]undecan-3-yl)methyl)-8-oxo-1,2,3,4,4a,5,8,10-octahydro-9H-pyrazino[1′,2′:4,5][1,4]oxazino[2,3-f]isoindol-9-yl)piperidine-2,6-dione], the IC50 in assay [1] was less than 1 nM. The DC50 on ER was less than 10 nM.
For the molecule `COc1cc(N2CCC3(CC2)OCC(CN2CCN4c5ccc6c(c5OC[C@@H]4C2)CN([C@@H]2CCC(=O)NC2=O)C6=O)CO3)ccc1[C@@H]1c2ccc3[nH]ncc3c2C[C@@H](C)N1CC(F)F` [Compound B116, (R)-3-((S)-7-((9-(4-((6S,8R)-7-(2,2-difluoroethyl)-8-methyl-6,7,8,9-tetrahydro-3H-pyrazolo[4,3-f]isoquinolin-6-yl)-3-methoxyphenyl)-1,5-dioxa-9-azaspiro[5.5]undecan-3-yl)methyl)-1-oxo-1,3,5,5a,6,7,8,9-octahydro-2H-pyrazino[1′,2′:4,5][1,4]oxazino[2,3-e]isoindol-2-yl)piperidine-2,6-dione], the IC50 in assay [1] was less than 1 nM. Further, at ER, the DC50 was less than 10 nM.
In the case of `COc1cc(N2CCC3(CC2)OCC(CN2CCC4(CC2)COc2c4ccc4c2CN(C2CCC(=O)NC2=O)C4=O)CO3)ccc1[C@@H]1c2ccc3[nH]ncc3c2C[C@@H](C)N1CC(F)F` (stereo partly drawn) [Compound B117, 3-(1′-((9-(4-((6S,8R)-7-(2,2-difluoroethyl)-8-methyl-6,7,8,9-tetrahydro-3H-pyrazolo[4,3-f]isoquinolin-6-yl)-3-methoxyphenyl)-1,5-dioxa-9-azaspiro[5.5]undecan-3-yl)methyl)-6-oxo-6,8-dihydro-2H,7H-spiro[furo[2,3-e]isoindole-3,4′-piperidin]-7-yl)piperidine-2,6-dione], the concentration for half-maximal inhibition (IC50) in assay [1] was less than 1 nM. Also, the DC50 at ER was less than 10 nM.
On to `C[C@@H]1Cc2c(ccc3[nH]ncc23)[C@@H](c2ccc(N3CCC(CN4CCC5(CC4)COc4c(ccc6c4CN([C@H]4CCC(=O)NC4=O)C6=O)O5)CC3)cn2)N1CC(F)(F)F` [Compound B119, (S)-3-(1-((1-(6-((6S,8R)-8-methyl-7-(2,2,2-trifluoroethyl)-6,7,8,9-tetrahydro-3H-pyrazolo[4,3-f]isoquinolin-6-yl)pyridin-3-yl)piperidin-4-yl)mcthyl)-7′-oxo-7′,9′-dihydro-2′H,8′H-spiro[piperidine-4,3′-[1,4]dioxino[2,3-e]isoindol]-8′-yl)piperidine-2,6-dione], for which the IC50 in assay [1] was less than 1 nM. Moreover, the DC50 on ER fell in the range of 10 to 100 nM.
For the molecule `C[C@H]1Cc2c(ccc3[nH]ncc23)[C@H](c2ccc(N3CC4(CCC(CN5CCN6c7ccc8c(c7OC[C@@H]6C5)CN([C@@H]5CCC(=O)NC5=O)C8=O)CC4)C3)cn2)N1CC(F)(F)F` [Compound B124, (R)-3-((S)-7-((2-(6-((6R,8S)-8-methyl-7-(2,2,2-trifluoroethyl)-6,7,8,9-tetrahydro-3H-pyrazolo[4,3-f]isoquinolin-6-yl)pyridin-3-yl)-2-azaspiro[3.5]nonan-7-yl)methyl)-1-oxo-1,3,5,5a,6,7,8,9-octahydro-2H-pyrazino[1′,2′:4,5][1,4]oxazino[2,3-e]isoindol-2-yl)piperidine-2,6-dione], the IC50 in assay [1] was less than 1 nM. Also, on ER, the DC50 was less than 10 nM.
In the same order, the values of `C[C@@H]1Cc2c(ccc3[nH]ncc23)[C@@H](c2cnc(N3CCC4(CCC(CN5CCN6c7ccc8c(c7OC[C@H]6C5)CN([C@H]5CCC(=O)NC5=O)C8=O)CO4)CC3)nc2)N1CC(F)(F)F` (stereo partly drawn) [Compound B125, (3S)-3-((5aR)-7-((9-(5-((6S,8R)-8-methyl-7-(2,2,2-trifluoroethyl)-6,7,8,9-tetrahydro-3H-pyrazolo[4,3-f]isoquinolin-6-yl)pyrimidin-2-yl)-1-oxa-9-azaspiro[5.5]undecan-3-yl)methyl)-1-oxo-1,3,5,5a,6,7,8,9-octahydro-2H-pyrazino[1′,2′:4,5][1,4]oxazino[2,3-e]isoindol-2-yl)piperidine-2,6-dione] are less than 1 nM and less than 10 nM.
